Experiments:
[1] = tested on: PMA-induced ear swelling; assay: Murine ear inflammation assay, PMA; assay type: in vivo, mouse; details: 25 mg/kg i/p; for Change in ear thickness (mean ± SD, ×0.01 mm): 5 hr after PMA
Protocol: Groups of 5-6 female BALB/c mice (ARC, WA, Australia), weighing 15-21 g were injected intraperitoneally (i/p) with selected compounds of the formula (I) at 25 mg/kg delivered in polyethylene glycol (PEG) 400: phosphate buffered saline (PBS) 1:1 or ethanol: propanediol:PBS 4:9:7 either 30 min prior to or immediately before the inflammogen was applied to the ears. Mice were anaesthetised using isoflurane and baseline thickness of both ears was measured using a spring micrometer. Each mouse received a total of […] of either AA in ethanol (50 mg/ml or 200 mg/ml) or PMA in either ethanol or acetone (0.2 mg/ml) applied to the inner and outer surfaces of each pinna (i.e. 0.5 mg or 2 mg AA or 2 μg PMA per ear). Mice were anaesthetised again to re-measure the ears at 1 hr post-AA application and 5 hr after PMA. The difference in ear swelling pre- and post-application of inflammogen for each ear was calculated, and the average for the two ears of each mouse taken. The difference in mean swelling of each test group compared to the group given vehicle alone was calculated using a general ANOVA using Dunnett's Multiple Comparison test when multiple compounds were tested in the one experiment or a two-tailed unpaired t-test when only one compound was tested (Prism 4, Graphpad Software).

[2] = tested on: eNOS; assay: eNOS mRNA expression in HCAECs (real-time PCR); assay type: cell-based, human; details: 10 μM, 24 hr; for Average increase in the expression of eNOS: average of experiments
Protocol: HCAECs were grown as described above. Because cell viability was less than 100% at 30 and 100 μM, eNOS experiments were conducted at one concentration (10 μM). After incubation, total RNA was extracted using TRI reagent (Sigma, St Louis, Mo., USA), following the manufacturer's protocol. RNA was quantitated and normalized to 100 ng/μl using the SYBR Green II assay (Molecular Probes, Eugene, Oreg., USA) before being reverse transcribed using iScript (Bio-Rad, Hercules, Calif., USA). eNOS (sense 5′-CCATCTACAGCTTTCCGGCGC-3′ and antisense 5′-CTCTGGGGTGGCCTTCAGCA-3′) and 18S (sense 5′-CGGCTACCACATCCAAGGAA-3′ and antisense 5′-GCT GGA ATT ACC GCG GCT-3′) mRNA levels were determined by real-time PCR using iQ SYBR Green Supermix (Bio-Rad) in an iCycler iQ RealTime thermocyler detection system (Bio-Rad Laboratories). The cycling parameters were 95° C. for 30 seconds, 62° C. for 30 seconds, and 72° C. for 30 seconds for 40 cycles, and real-time data was collected at each cycle. There were six replicates.

[3] = tested on: TXA2; assay: TXA2 synthesis in RA-stimulated U937 cells; assay type: cell-based, human; details: A23187 0.5 μM, 30 min
Protocol: (§1) U937 cells were thawed and resuspended in RPMI and 10% FCS at 2×10^5 cells per ml. The cells were incubated in 5% CO2 at 37° C. and expanded in growing culture to at least 6.4×10^7 total cells. The cells were then resuspended in fresh medium and cultured with 5 μM retinoic acid (RA) at 2×10^5 cells per ml for a further 3 days (72 h). RA treated cells were washed 2× in serum-free RPMI and resuspended in serum-free medium at 5×10^6 cells per ml. The cells were aliquotted into Teflon tubes at 1 ml per tube. Working stock solutions of compounds (1) and (3) were prepared at 0.1 mM, 1 mM and 10 mM as described above. For each working dilution, 10 μl was added to 1 ml cells to achieve a final concentration of 0 (DMSO alone), 1, 10, and 100 μM for each test compound. Cells were incubated in triplicate with each concentration of test compound for 15 min at 37° C. After 15 min pre-incubation, each 1 ml tube of cells received 5 μl of a […] solution of the calcium ionophore A23187 (to achieve 0.5 μM A23187). Incubation at 37° C. was continued for a further 30 min. After incubation, supernatants were collected by centrifugation at 2000 rpm for 10 min and stored at −20° C. until required for assay.

[4] = tested on: PGE2; assay: PGE2 synthesis in RA-stimulated U937 cells; assay type: cell-based, human; details: A23187 0.5 μM, 30 min
Protocol: as §1

[5] = tested on: iNOS; assay: NO synthesis in LPS-stimulated RAW 264.7 (Griess); assay type: cell-based, mouse; details: LPS 50 ng/ml, 16 hrs
Protocol: The mouse macrophage cell line RAW 264.7 was cultured in DMEM supplemented with foetal calf serum (FCS), 2 mM glutamine and 50 U/ml penicillin/streptomycin. Cells were treated with either the compounds of the formula (I) (in 0.025% DMSO) or vehicle alone, and added one hour before 50 ng/ml LPS, which induces iNOS and the production of NO. After incubation for 16 hrs, culture media was collected. Nitrite concentration is a quantitative indicator of NO production and was determined by the Griess Reaction. Briefly, 100 μL of Griess reagent was added to 50 μL of each supernatant in duplicate. The absorbance at 550 nm was measured (Molecular Devices, SpectraMax 250 microplate spectrophotometer, CA, USA), and nitrite concentrations were determined against a standard curve of sodium nitrite.

[6] = tested on: TNFα; assay: TNFα synthesis in RAW 264.7 (ELISA); assay type: cell-based, mouse; details: LPS 50 ng/ml, 16 hrs
Protocol: The mouse macrophage cell line RAW 264.7 was cultured in DMEM supplemented with foetal calf serum (FCS), 2 mM glutamine and 50 U/ml penicillin/streptomycin. Cells were treated with either test compounds (in 0.025% DMSO) or vehicle alone, and added one hour before 50 ng/ml LPS. After incubation for 16 hrs, culture media was collected for PGE2 or TXB2 measurement by ELISA (Cayman Chemical), and TNFα measurement using an ELISA (Becton Dickinson).

CN(C)Cc1cc2c(cc1O)OCC(c1ccc(O)cc1)=C2 [Compound (1)]
% Change compared with vehicle [1]: −12.3%
Change in ear thickness (mean ± SD, ×0.01 mm) [1]: 28.9 ± 3.071 ×0.01 mm
Average increase in the expression of eNOS [2]: 45%
Increase in expression of eNOS mRNA relative to control cells ([2]; EXPT 1): 52 ± 25% (0.0001)
Increase in expression of eNOS mRNA relative to control cells ([2]; EXPT 2): 53 ± 49 (0.009)
Increase in expression of eNOS mRNA relative to control cells ([2]; EXPT 3): 30 ± 30 (0.014)
TXB2 ([3]; 1 μM): 35.833 ± 1.866 pg
TXB2 ([3]; 10 μM): 41.697 ± 2.275 pg
TXB2 ([3]; 100 μM): 21.708 ± 5.439 pg
PGE2 ([4]; 1 μM): 1.485 ± 0.175 pg
PGE2 ([4]; 10 μM): 1.58 ± 0.145 pg
PGE2 ([4]; 100 μM): 0.881 ± 0.116 pg
NO (μM) ([5]; 1 μM): 17.27 ± 0^ μM
NO ([5]; 10 μM): 5.29 ± 0.15 µM
TNFα ([6]; 1 μM): 40002.31 ± 694.8 pg/mL
TNFα ([6]; 10 μM): 41958.94 ± 837.04 pg/mL

O=C(O)C1CCCN1Cc1cc2c(cc1O)OCC(c1ccc(O)cc1)=C2 (stereo not shown) [Compound (3)]
% Change compared with vehicle [1]: 0%
Change in ear thickness (mean ± SD, ×0.01 mm) [1]: 37.9 ± 2.6 ×0.01 mm
Average increase in the expression of eNOS [2]: 325%
Increase in expression of eNOS mRNA relative to control cells ([2]; EXPT 1): 372 ± 138% (0.00001)
Increase in expression of eNOS mRNA relative to control cells ([2]; EXPT 2): 277 ± 212 (0.002)
TXB2 ([3]; 1 μM): 18.434 ± 0.367 pg
TXB2 ([3]; 10 μM): 26.276 ± 9.76 pg
TXB2 ([3]; 100 μM): 12.668 ± 3.506 pg
PGE2 ([4]; 1 μM): 1.025 ± 0.114 pg
PGE2 ([4]; 10 μM): 1.271 ± 0.212 pg
PGE2 ([4]; 100 μM): 1.39 ± 0.227 pg
NO ([5]; 1 μM): 31.33 ± 0.16 µM
NO ([5]; 10 μM): 21.79 ± 0.82 µM
TNFα ([6]; 1 μM): 26677.52 ± 815.64 pg/mL
TNFα ([6]; 10 μM): 45429.44 ± 1630.68 pg/mL

Source: patent publication US20120003270A1, “6-SUBSTITUTED ISOFLAVONOID COMPOUNDS AND USES THEREOF” (priority 2008, published 2012)
